# Measured values reported in patent US20250326765A1, “PDE4B INHIBITOR AND USE THEREOF” (XIZANG HAISCO PHARMACEUTICAL CO., LTD., priority 2022, published 2025).
# Read-outs that look alike come from different tables or passages of the source.
# Legend:
# [1] = target: T1, PDE4B2 (Homo sapiens, UniProt Q07343); test: Effect of compounds on PDE4B2 activity (fluorescence polarization kit); type: biochemical
# T1 construct: purchased BPS Bioscience 60343
# Description: The effect of compounds on PDE4B2 activity was detected by a fluorescence polarization kit (BPS Bioscience, Catalog #60343). According to the instructions of the kit, FAM-Cyclic-3′,5′-AMP at a final concentration of […], 1 ng/well of PDE4B2 (PDE buffer was added to the negative control well), and a compound diluted in a gradient manner (PDE buffer containing 10% DMSO was added to the positive control well) were added to each well, fully mixed, and then reacted at room temperature for 1 h. The Binding Agent was diluted with the Binding Agent Diluent (cAMP) at a ratio of 1:100 for later use, the Binding Agent dilution was taken and added to the test plate at 50 μl/well and incubated at room temperature with slow shaking for 20 minutes. After the incubation was complete, Envision was used for FP detection, with Excitation at 480 nm and Emission at 535 nm. FP was usually represented by mP value.
# [formula] • I∥ (S535): fluorescence intensity in parallel direction • I⊥ (P535): fluorescence intensity in perpendicular direction • G: G factor=1
# (§1) [formula] • mP(sample): mP of the test compound in a reaction well • mP(negative control): mP in the negative control well • mP(positive control): mP in the positive control well
# (§2) According to the calculated inhibition rate at each concentration, the IC50 value of each compound was calculated by GraphPad Prism 8 software.
# [2] = target: T2, PDE4B1 (Homo sapiens, UniProt Q07343); test: Effect of compounds on PDE4B1 activity (IMAP fluorescence polarization kit); type: biochemical; details: class symbols
# T2 construct: purchased BPS 60041
# Description: The IMAP Reaction Buffer containing 0.1% BSA (5×) in the kit was diluted into a 1-fold reaction buffer containing 1 mM DTT. 0.12 nM PDE4B1 (BPS, Cat #60041) was added to the 1-fold reaction buffer to form a 2-fold enzyme solution. 10 μL of the 2-fold enzyme solution was added to wells of a 384-well reaction plate. For the negative control well, 10 μL of the 1-fold reaction buffer was used instead of the enzyme solution. Centrifugation at 1000 rpm for 1 minute and incubation at room temperature for 15 minutes were carried out. 0.2 uM FAM-labeled cAMP (FAM-cAMP, Molecular Device, Cat #R7506) was added to the 1-fold reaction buffer to form a 2-fold substrate solution. 10 μL of the 2-fold substrate solution was added to each well of the 384-well reaction plate. Centrifugation at 1000 rpm for 1 minute was carried out. A reaction was carried out at room temperature for 20 minutes. IMAP Progressive Binding Buffer A (5×), IMAP Progressive Binding Buffer B (5×), and IMAP Progressive Binding Reagent (provided by IMAP FP IPP Explorer Kit) were prepared into a reaction stop solution according to the instructions for use. 60 μL of an […] reaction stop solution was added to each well of the 384-well reaction plate to stop the reaction, and the reaction product was centrifuged at 1000 rpm for 1 minute. Incubation at room temperature in the dark for 60 minutes was carried out. The mP values (Ex480/Em535 (s), Em535 (p)) were read by a microplate reader (Envision).
# FP was usually represented by mP value. mP value for FP measurement=1000*(S−G*P)/(S+G*P) • S: fluorescence intensity in parallel direction • P: fluorescence intensity in perpendicular direction • G: G factor=1
# as §1
# According to the calculated inhibition rate at each concentration, the IC50 value of each compound was calculated by XLFit excel add-in version 5.4.0.8 software.
# Y=Bottom+(Top−Bottom)/(1+(IC50/X)^HillSlope) Fitting formula: […]
# [3] = target: T3, PDE4D2 (Homo sapiens, UniProt Q08499); test: Effect of compounds on PDE4D2 activity (fluorescence polarization kit); type: biochemical; details: class symbols
# T3 construct: purchased BPS Bioscience 60345
# Description: The effect of compounds on PDE4D2 activity was detected by a fluorescence polarization kit (BPS Bioscience, Catalog #60345). During the reaction, 12.5 μL of 0.272 ng/well of an enzyme (final concentration: 0.068 ng/well) and 12.5 μL of the compound diluted in a gradient manner (DMSO concentration: 4%) were first pre-incubated at room temperature for 15 minutes, the same volume of the enzyme at the same concentration and 12.5 μL of PDE buffer containing 4% DMSO were added to the positive control well, and 25 μL of PDE buffer containing 2% DMSO was added to the negative control well. After completion, 25 μL of […] FAM-Cyclic-3′,5′-AMP (final concentration: […]) was added to each well, fully mixed, and then incubated at room temperature with slow shaking for 30 minutes. The Binding Agent was diluted with the Binding Agent Diluent (cAMP) at a ratio of 1:100 for later use, 100 μl/well of the Binding Agent dilution was taken and added to all wells of the test plate and incubated at room temperature with slow shaking for 1 hour.
# After the incubation was complete, BMG LRBTECH microplate reader was used for FP detection, with Excitation at 485 nm and Emission at 520 nm. FP was usually represented by mP value.
# [formula] • I∥ (S520): fluorescence intensity in parallel direction • I⊥ (P520): fluorescence intensity in perpendicular direction • G: G factor=1
# as §1, §2
# [4] = Pharmacokinetic test in mice; type: in vivo, ICR mice; details: for AUC(0-t) / clearance / half-life / Vd: male, ICR, mouse, plasma; for Vd: read-out: Vdss
# Description: 5.1 Experimental animals: Male ICR mice, 20-25 g, 6 mice/compound. Purchased from Chengdu Ddossy Experimental Animals Co., Ltd.
# 5.2 Experimental design: On the day of the experiment, 42 ICR mice were randomly grouped according to their body weights. The animals were fasted with water available for 12-14 h one day before administration and fed 4 h after administration.
# Before and after administration, 0.06 mL of blood was taken from the orbit under isoflurane anesthesia and placed in an EDTAK2 centrifuge tube for centrifugation at 5000 rpm at 4-C for 10 min, followed by plasma collection. The blood collection time points for the intravenous group and intragastric group were both 0 m, 5 mi, 15 mi, 30 mi, 1 h, 2 h, 4 h, 6 h, 8 h, and 24 h. Before analysis and detection, all the samples were stored at −80° C., and the samples were subjected to quantitative analysis using LC-MS/MS.
# [5] = Pharmacokinetic test in beagle dogs; type: in vivo
# Description: 6.1 Experimental animals: male beagle dogs, about 8-11 kg, 6 beagle dogs/compound, purchased from Beijing Marshall Biotechnology Co., Ltd.
# 6.2 Experimental method: On the day of the experiment, 18 beagle dogs were randomly grouped according to their body weights. The animals were fasted with water available for 12-14 h one day before administration and fed 4 h after administration. Administration was carried out according to Table 8.
# Before and after administration, 1 ml of blood was taken from the jugular vein or limb vein and placed in an EDTAK2 centrifuge tube. Centrifugation was carried out at 5000 rpm at 4° C. for 10 min, and plasma was collected. The blood collection time points for the intravenous group and intragastric group were both 0 min, 5 min, 15 min, 30 min, 1 h, 2 h, 4 h, 6 h, 8 h, 10 h, 12 h, 24 h, 48 h, and 72 h. Before analysis and detection, all the samples were stored at −80° C., and the samples were subjected to quantitative analysis using LC-MS/MS.
# [6] = Inhibition of LPS-induced TNF-α release from human peripheral blood mononuclear cells in vitro; type: cell-based; details: PBMC, hPBMC, 100 ng/mL LPS, 4 h
# Description: Normal human peripheral blood which was anticoagulated (citric acid anticoagulation) was collected, and hPBMCs were prepared by Ficoll-Paque PLUS (Cytiva, Cat #17144002, density 1.077 g/mL). The concentration of hPBMC cells was adjusted to 0.25×10^6 cells/mL with RPMI1640 medium and inoculated into a 96-well plate in an amount of 50000 cells per well. Subsequently, different concentrations of drugs were added for pre-incubation for 1 h (the DMSO final concentration was 0.1%, and the positive and negative control wells had the same volume of RPMI1640 containing 0.1% DMSO). After the pre-incubation was complete, 100 ng/mL LPS (SIGMA, L2630) was added to the compound and positive control wells, and the negative control well had the same volume of RPMI1640 containing 0.1% DMSO. Incubation was carried out for 4 h in an incubator at 37° C. and 5% CO2. The cell supernatant was collected, and the content of TNF-α in the supernatant sample was detected by human TNF-α Elisa quantitative test kit (Sino Biological, Cat #KIT10602). The IC50 value was calculated using GraphPad Prism software.
# [7] = class symbols, read-out: PDE4B2 IC50
# [8] = male, dog, iv, plasma, i.v. (1 mg/kg)
# [9] = male, dog, po, plasma, i.g. (5 mg/kg)
# T2 sequence (Q07343 whole entry): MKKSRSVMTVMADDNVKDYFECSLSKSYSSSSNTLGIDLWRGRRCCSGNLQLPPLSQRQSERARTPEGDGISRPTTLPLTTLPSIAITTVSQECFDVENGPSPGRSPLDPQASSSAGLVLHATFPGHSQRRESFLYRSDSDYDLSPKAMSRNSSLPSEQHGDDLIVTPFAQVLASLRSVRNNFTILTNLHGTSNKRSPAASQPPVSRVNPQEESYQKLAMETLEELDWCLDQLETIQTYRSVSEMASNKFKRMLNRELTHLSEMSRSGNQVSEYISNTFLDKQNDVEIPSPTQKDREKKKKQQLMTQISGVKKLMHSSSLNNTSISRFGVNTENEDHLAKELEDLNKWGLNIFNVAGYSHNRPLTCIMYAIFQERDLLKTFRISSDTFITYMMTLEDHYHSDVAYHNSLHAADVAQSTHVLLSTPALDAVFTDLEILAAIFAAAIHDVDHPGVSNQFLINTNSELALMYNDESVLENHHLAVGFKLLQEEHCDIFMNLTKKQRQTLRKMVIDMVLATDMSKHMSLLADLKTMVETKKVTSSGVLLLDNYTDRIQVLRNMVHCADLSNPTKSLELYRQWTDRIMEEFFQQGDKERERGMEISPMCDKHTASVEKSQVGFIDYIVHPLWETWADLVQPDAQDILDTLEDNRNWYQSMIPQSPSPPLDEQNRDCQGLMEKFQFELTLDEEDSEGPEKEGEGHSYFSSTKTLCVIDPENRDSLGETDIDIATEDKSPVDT
# T3 sequence (Q08499 303-809): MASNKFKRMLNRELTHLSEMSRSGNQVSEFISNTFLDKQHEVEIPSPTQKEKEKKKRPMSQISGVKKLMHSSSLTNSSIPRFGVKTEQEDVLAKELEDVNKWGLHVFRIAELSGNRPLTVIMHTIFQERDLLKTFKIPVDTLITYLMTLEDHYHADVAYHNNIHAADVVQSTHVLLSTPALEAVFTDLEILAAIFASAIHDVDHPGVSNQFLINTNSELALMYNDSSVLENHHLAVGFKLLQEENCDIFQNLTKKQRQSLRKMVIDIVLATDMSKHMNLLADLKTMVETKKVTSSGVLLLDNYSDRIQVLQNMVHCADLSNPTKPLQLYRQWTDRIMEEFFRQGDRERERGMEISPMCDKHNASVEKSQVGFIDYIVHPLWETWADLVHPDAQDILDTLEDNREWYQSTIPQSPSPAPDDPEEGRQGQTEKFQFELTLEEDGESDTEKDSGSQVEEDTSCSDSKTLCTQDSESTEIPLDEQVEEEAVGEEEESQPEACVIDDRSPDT
# T1 sequence (Q07343 1-564 isoform Q07343-2): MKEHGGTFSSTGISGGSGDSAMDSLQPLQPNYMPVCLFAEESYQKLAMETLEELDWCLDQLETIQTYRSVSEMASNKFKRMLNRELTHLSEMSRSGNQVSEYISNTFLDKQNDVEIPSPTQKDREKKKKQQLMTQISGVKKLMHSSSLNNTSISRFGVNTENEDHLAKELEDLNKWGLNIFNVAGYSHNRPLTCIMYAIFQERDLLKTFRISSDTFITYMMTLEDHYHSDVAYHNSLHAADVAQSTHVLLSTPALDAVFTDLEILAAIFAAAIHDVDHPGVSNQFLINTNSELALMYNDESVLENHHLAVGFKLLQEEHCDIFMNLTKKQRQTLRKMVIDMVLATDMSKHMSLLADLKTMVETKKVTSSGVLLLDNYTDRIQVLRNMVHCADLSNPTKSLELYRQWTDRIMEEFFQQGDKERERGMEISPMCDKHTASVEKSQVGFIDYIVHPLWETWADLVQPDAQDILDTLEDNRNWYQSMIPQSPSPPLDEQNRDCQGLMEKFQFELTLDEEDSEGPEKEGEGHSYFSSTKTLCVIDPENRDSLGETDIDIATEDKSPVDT
SMILES,"IC50 [1, 7] [nM]",IC50 [2] [nM],IC50 [3] [nM],further results
[O-][S@+]1CCc2nc(N3C[C@H]4CN(c5ncc(Cl)cn5)C[C@H]4C3)nc(NC3(CO)CCC3)c21 [Compound 25],10 to 50,< 10,< 10,
[O-][S@+]1CCc2nc(N3CC=C(c4ncc(Cl)cn4)CC3)nc(NC3(CO)CCC3)c21 [Compound 28],,< 10,< 10,"F ([4]; i.g. (10 mg/kg)): 71.4 ± 11%; AUC(0-t) ([4]; iv, i.v. (5 mg/kg)): 9210 ± 2070 ng·h/mL; clearance ([4]; iv, i.v. (5 mg/kg)): 4.67 ± 1.2 mL/min/kg; half-life ([4]; iv, i.v. (5 mg/kg)): 3.59 ± 0.19 h; Vd ([4]; iv, i.v. (5 mg/kg)): 1.31 ± 0.28 L/kg; AUC(0-t) ([4]; po, i.g. (10 mg/kg)): 26300 ± 4150 ng·h/mL; half-life ([4]; po, i.g. (10 mg/kg)): 7.04 ± 1.8 h"
[O-][S@+]1CCc2nc(N3CCC=C(c4ccc(Cl)cc4)CC3)nc(NC3(CO)CCC3)c21 [Compound 5],< 10,,< 10,"IC50 ([1]; values in text, read-out: IC50 against PDE4B2): 8.1 nM; F ([4]; i.g. (10 mg/kg)): 91.9 ± 7.5%; AUC(0-t) ([4]; iv, i.v. (5 mg/kg)): 7400 ± 1110 ng·h/mL; clearance ([4]; iv, i.v. (5 mg/kg)): 5.71 ± 0.86 mL/min/kg; half-life ([4]; iv, i.v. (5 mg/kg)): 2.72 ± 0.23 h; Vd ([4]; iv, i.v. (5 mg/kg)): 1.31 ± 0.12 L/kg; AUC(0-t) ([4]; po, i.g. (10 mg/kg)): 27200 ± 2230 ng·h/mL; half-life ([4]; po, i.g. (10 mg/kg)): 3.42 ± 0.16 h; F ([5]; i.g. (5 mg/kg)): ≥98%; AUC(0-t) [5, 8]: 1200 ± 210 ng·h/mL; clearance [5, 8]: 13.8 ± 2.3 mL/min/kg; half-life [5, 8]: 3.91 ± 0.037 h; Vd ([5]; male, dog, iv, plasma, i.v. (1 mg/kg), read-out: Vdss): 4.16 ± 0.76 L/kg; AUC(0-t) [5, 9]: 5020 ± 1700 ng·h/mL; half-life [5, 9]: 6.32 ± 2.1 h"
CC1=C(c2ccc(Cl)cc2)CCN(c2nc3c(c(NC4(CO)CCC4)n2)[S+]([O-])CC3)C1 (stereo not drawn) [Compound 36],,< 10,,
[O-][S@+]1CCc2nc(N3CCC=C(c4ccc5c(c4)CC5)CC3)nc(NC3(CO)CCC3)c21 [Compound 27],,< 10,< 10,
[O-][S@+]1CCc2nc(N3C[C@H]4CC[C@@H](C3)[C@@H]4c3ccc(Cl)cc3)nc(NC3(CO)CCC3)c21 [Compound 22],10 to 50,10 to 50,10 to 50,
[O-][S+]1CCc2nc(N3CCC4=C(COc5cc(Cl)ccc54)C3)nc(NC3(CO)CCC3)c21 (stereo not drawn) [Compound 29],,< 10,< 10,
[O-][S+]1CCc2nc(N3CC4C(C3)C4c3ccc(Cl)cc3)nc(NC3(CO)CCC3)c21 (stereo not drawn) [Compound 20],10 to 50,< 10,< 10,
[O-][S@+]1CCc2nc(N3CC=C(c4ccc5c(c4)CC5)CC3)nc(NC3(CO)CCC3)c21 [Compound 26],,< 10,< 10,
"N#Cc1ccc2c(c1)OCC1CN(c3nc4c(c(NC5(CO)CCC5)n3)[S+]([O-])CC4)CCN21 (single isomer, unassigned) [Compound 74-1]",< 10,,< 10,"IC50 ([6]; class symbols, read-out: Re IC50 (nM) (relative IC50), TNF-α induced by LPS): 10 to 50 nM; Emax ([6]; read-out: Max inhibition (%)): 72.4%"
[O-][S+]1CCc2nc(N3CC=C(c4c(F)cc(Cl)cc4F)CC3)nc(NC3(CO)CCC3)c21 (stereo not drawn) [Compound 35],,< 10,< 10,
